We go through 22 compounds from patent US11306084B2, “Integrin antagonists” (Saint Louis University, priority 2016, dated 2022).

In assay [1] the target is T1, Recombinant human integrin ανβ8 (Homo sapiens, UniProt P06756+P26012).
T1 construct: purchased R&D Systems 4135-AV
The assay is described as follows: Solid Phase Receptor Assay (SPRA) for ανβ8 function. It counts as binding. Conditions: plate-bound human LAP; read-out: αvβ8 SPRA IC50. Here is the method: F. Solid Phase Receptor Assay (SPRA) for ανβ8 Function
Wells were washed 3 times with 150 μL TBS+ and then 150 μL of blocking buffer (TBS+ with 1% bovine serum albumin, Sigma A7906) was added. The plate was incubated for 1 hr at 37° C. and then washed 3× with TBS+. […] Compounds were diluted to 20 μM and 1 μL was added to each well of the plate according to a standard template with each sample repeated in triplicate. After incubation for two hours at room temperature, the plate was washed 3× with 150 μL of TBS+. To each well, 50 μL of biotinylated anti-αν antibody (R&D Systems, BAF1219) at 1 μg/mL in TBS+/0.1% BSA were added and the plate was covered and incubated for 1 hr at room temperature. After washing the plate 3× with 150 μL. of TBS+ buffer, 50 μL of streptavidin-conjugated horseradish peroxidase (R&D Systems, DY998) diluted in TBS+ blocking buffer were added to the wells and the plate incubated for 20 min at room temperature. The plate was washed 3× with TBS+ followed by 50 μL of TMB substrate (Sigma T4444) added to each well in the dark and the plate incubated for 10 min at room temperature. 25 μL of 1.0 M phosphoric acid was added as a stop solution and the plates were read at 450 nm using a Spectramax plate reader.

Assay [2] has as its target T2, Recombinant human integrin ανβ5 (Homo sapiens, UniProt P06756+P18084).
T2 construct: purchased R&D Systems 2528-AV
The assay is described as follows: Solid Phase Receptor Assay (SPRA) for ανβ5 function. The assay is classed as binding. The following applies: plate-bound human vitronectin; read-out: αvβ5 SPRA IC50. How it is done: D. Solid Phase Receptor Assay (SPRA) for ανβ5 Function
Wells were washed 3 times with 150 μL TBS+ and then 150 μL of blocking buffer (TBS+ with 1% bovine serum albumin, Sigma A7906) was added. The plate was incubated for 1 hr at 37° C. and then washed 3× with TBS+ buffer. […] Compounds were diluted to 20 μM and then 1 μL was added to each well of the plate according to a standard template with each sample repeated in triplicate. After incubation for two hours at room temperature, the plate was washed 3× with 150 μL of TBS+ buffer. To each well, 50 μl of biotinylated anti-αν antibody (R&D Systems, BAF1219) at 0.5 μg/mL in TBS+/0.1% BSA at 0.5 μg/mL were added and the plate covered and incubated for 1 hr at room temperature. After washing the plate 3 with 150 μL of TBS+ buffer, 50 μL of streptavidin-conjugated horseradish peroxidase (R&D Systems, DY998) diluted in TBS+ blocking buffer were added to the wells and the plate incubated for 20 min at room temperature. The plate was washed 3× with TBS+ buffer followed by 50 μL of TMB substrate (Sigma T4444) added to each well in the dark and the plate incubated for 5 min at room temperature. 25 μL of 1.0 M phosphoric acid was added as a stop solution and the plates were read at 450 nm using a Spectramax plate reader.

Where a name gives a salt, the structure may show the parent alone.

T2 sequence (P06756 31-992 limits assumed): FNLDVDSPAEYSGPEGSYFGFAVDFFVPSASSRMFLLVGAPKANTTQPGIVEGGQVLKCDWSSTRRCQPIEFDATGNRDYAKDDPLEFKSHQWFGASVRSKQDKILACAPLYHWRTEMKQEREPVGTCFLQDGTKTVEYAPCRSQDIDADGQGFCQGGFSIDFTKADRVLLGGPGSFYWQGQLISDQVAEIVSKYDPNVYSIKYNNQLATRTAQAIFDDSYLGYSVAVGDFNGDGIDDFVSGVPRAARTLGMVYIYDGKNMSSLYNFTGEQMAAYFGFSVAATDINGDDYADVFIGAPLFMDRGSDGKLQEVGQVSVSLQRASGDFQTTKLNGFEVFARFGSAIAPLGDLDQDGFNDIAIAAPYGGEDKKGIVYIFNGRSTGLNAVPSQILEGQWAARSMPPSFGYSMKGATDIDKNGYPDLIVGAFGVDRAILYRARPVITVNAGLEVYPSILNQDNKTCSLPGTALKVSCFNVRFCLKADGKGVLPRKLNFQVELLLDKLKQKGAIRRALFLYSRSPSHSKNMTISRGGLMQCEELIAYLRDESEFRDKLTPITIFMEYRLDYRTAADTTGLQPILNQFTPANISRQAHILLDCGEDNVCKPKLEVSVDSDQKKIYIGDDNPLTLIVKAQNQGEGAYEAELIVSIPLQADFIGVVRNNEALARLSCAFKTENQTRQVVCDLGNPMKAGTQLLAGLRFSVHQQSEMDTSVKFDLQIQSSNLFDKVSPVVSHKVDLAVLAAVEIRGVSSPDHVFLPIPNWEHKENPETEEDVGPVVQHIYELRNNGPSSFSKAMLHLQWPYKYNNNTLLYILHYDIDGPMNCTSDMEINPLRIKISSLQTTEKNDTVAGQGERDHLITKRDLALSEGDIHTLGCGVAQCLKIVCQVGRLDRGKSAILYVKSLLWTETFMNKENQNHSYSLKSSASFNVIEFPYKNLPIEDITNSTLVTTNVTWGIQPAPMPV
T2 sequence (P18084 24-719 limits assumed): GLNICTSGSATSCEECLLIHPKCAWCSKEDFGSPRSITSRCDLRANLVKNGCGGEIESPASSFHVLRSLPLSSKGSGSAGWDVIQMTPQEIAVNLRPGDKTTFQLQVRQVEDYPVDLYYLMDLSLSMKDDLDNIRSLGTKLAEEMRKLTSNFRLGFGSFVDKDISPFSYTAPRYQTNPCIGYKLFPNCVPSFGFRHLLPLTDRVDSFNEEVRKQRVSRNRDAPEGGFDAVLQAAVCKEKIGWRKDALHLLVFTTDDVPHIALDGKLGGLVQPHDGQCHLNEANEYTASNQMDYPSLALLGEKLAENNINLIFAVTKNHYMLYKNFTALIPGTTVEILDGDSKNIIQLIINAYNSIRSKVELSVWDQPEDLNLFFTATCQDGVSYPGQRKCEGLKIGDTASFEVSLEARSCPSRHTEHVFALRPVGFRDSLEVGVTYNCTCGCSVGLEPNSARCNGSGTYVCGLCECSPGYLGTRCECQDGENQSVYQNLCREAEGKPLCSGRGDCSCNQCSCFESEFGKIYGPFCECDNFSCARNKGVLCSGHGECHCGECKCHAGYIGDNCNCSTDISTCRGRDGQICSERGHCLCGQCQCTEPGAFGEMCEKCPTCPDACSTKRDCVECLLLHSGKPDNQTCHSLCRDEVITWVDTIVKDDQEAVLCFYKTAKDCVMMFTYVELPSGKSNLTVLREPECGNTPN
T1 sequence (P06756 31-992 limits assumed): as the sequence (P06756 31-992 limits assumed) above
T1 sequence (P26012 43-684 limits assumed): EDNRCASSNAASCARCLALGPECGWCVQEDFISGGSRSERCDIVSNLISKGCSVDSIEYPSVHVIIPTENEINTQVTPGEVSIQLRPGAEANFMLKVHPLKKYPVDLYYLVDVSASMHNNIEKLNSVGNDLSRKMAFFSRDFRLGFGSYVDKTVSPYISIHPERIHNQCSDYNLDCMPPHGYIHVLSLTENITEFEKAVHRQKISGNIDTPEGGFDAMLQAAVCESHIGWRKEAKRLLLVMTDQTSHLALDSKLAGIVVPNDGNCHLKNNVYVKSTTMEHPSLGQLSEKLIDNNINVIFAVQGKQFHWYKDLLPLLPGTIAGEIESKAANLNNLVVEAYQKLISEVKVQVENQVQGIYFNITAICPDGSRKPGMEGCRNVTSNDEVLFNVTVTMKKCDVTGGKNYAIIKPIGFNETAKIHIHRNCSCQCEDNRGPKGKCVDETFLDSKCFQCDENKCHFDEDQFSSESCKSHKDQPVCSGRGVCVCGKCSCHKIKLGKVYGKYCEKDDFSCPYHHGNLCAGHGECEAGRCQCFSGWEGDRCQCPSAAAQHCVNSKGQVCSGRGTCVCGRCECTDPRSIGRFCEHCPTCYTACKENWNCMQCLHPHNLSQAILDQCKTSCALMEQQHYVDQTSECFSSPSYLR

For the compound `Cn1nc(CC(CC(=O)O)c2ccc3c(c2)OCCO3)cc1OCCc1ccc2c(n1)NCCC2` (centres unmarked) [Example 1, 3-(2,3-dihydrobenzo[b][1,4]dioxin-6-yl)-4-(1-methyl-5-(2-(5,6,7,8-tetrahydro-1,8-naphthyridin-2-yl)ethoxy)-1H-pyrazol-3-yl)butanoic Acid], the IC50 was determined as 52 nM in assay [1] and 0.9 nM in assay [2].
As to `Cn1nc(CC(CC(=O)O)c2cc(F)cc(Cl)c2)cc1OCCc1ccc2c(n1)NCCC2` (centres unmarked) [Example 2, 3-(3-chloro-5-fluorophenyl)-4-(1-methyl-5-(2-(5,6,7,8-tetrahydro-1,8-naphthyridin-2-yl)ethoxy)-1H-pyrazol-3-yl)butanoic Acid], the IC50 was found to be 32 nM in assay [1] and 0.3 nM in assay [2].
`COc1ccc(C(CC(=O)O)Cc2cc(OCCc3ccc4c(n3)NCCC4)n(C)n2)cc1F` (centres unmarked) [Example 3, 3-(3-fluoro-4-methoxyphenyl)-4-(1-methyl-5-(2-(5,6,7,8-tetrahydro-1,8-naphthyridin-2-yl)-ethoxy)-1H-pyrazol-3-yl)butanoic Acid]: the IC50 is 114 nM in assay [1] and 0.4 nM in assay [2].
The corresponding values for `Cn1nc(CC(CC(=O)O)c2ccc(Br)c(F)c2)cc1OCCc1ccc2c(n1)NCCC2` (centres unmarked) [Example 4, 3-(4-bromo-3-fluorophenyl)-4-(1-methyl-5-(2-(5,6,7,8-tetrahydro-1,8-naphthyridin-2-yl)ethoxy)-1H-pyrazol-3-yl)butanoic Acid] are 79 nM and 0.5 nM.
As to `Cn1nc(CC(CC(=O)O)c2ccc(F)c(Br)c2)cc1OCCc1ccc2c(n1)NCCC2` (centres unmarked) [Example 5, 3-(3-bromo-4-fluorophenyl)-4-(1-methyl-5-(2-(5,6,7,8-tetrahydro-1,8-naphthyridin-2-yl)ethoxy)-1H-pyrazol-3-yl)butanoic Acid], the IC50 turned out to be 16 nM in assay [1] and 0.4 nM in assay [2].
In the case of `Cn1nc(CC(CC(=O)O)c2cccc(Br)c2)cc1OCCc1ccc2c(n1)NCCC2` (centres unmarked) [Example 6, 3-(3-bromophenyl)-4-(1-methyl-5-(2-(5,6,7,8-tetrahydro-1,8-naphthyridin-2-yl)ethoxy)-1H-pyrazol-3-yl)butanoic Acid], the results for the IC50 in assay [1] and in assay [2] were 19 nM and 0.4 nM, respectively.
As to `Cn1nc(CC(CC(=O)O)c2ccc(F)c(C#N)c2)cc1OCCc1ccc2c(n1)NCCC2` (centres unmarked) [Example 7, 3-(3-cyano-4-fluorophenyl)-4-(1-methyl-5-(2-(5,6,7,8-tetrahydro-1,8-naphthyridin-2-yl)ethoxy)-1H-pyrazol-3-yl)butanoic Acid], the IC50 in assay [1] was determined as 23 nM; in assay [2], 0.6 nM.
`Cn1nc(CC(CC(=O)O)c2ccc(C#N)c(F)c2)cc1OCCc1ccc2c(n1)NCCC2` (centres unmarked) [Example 8]: the concentration for half-maximal inhibition (IC50) in assay [1] stood at 48 nM; in assay [2] it was 1 nM.
As to `Cn1nc(CC(CC(=O)O)c2cccc(C#N)c2)cc1OCCc1ccc2c(n1)NCCC2` (centres unmarked) [Example 9, 3-(3-cyanophenyl)-4-(1-methyl-5-(2-(5,6,7,8-tetrahydro-1,8-naphthyridin-2-yl)ethoxy)-1H-pyrazol-3-yl)butanoic Acid], the IC50 stood at 62 nM in assay [1] and 0.2 nM in assay [2].
With `Cn1nc(CC(CC(=O)O)c2cc(Br)cc(C(F)(F)F)c2)cc1OCCc1ccc2c(n1)NCCC2` (centres unmarked) [Example 10, 3-(3-bromo-5-(trifluoromethyl)phenyl)-4-(1-methyl-5-(2-(5,6,7,8-tetrahydro-1,8-naphthyridin-2-yl)ethoxy)-1H-pyrazol-3-yl)butanoic Acid], the IC50 in assay [1] is 12 nM; in assay [2] it was 1 nM.
`Cn1nc(CC(CC(=O)O)c2cc(Br)cc(OC(F)(F)F)c2)cc1OCCc1ccc2c(n1)NCCC2` (centres unmarked) [Example 11, 3-(3-bromo-5-(trifluoromethoxy)phenyl)-4-(1-methyl-5-(2-(5,6,7,8-tetrahydro-1,8-naphthyridin-2-yl)ethoxy)-1H-pyrazol-3-yl)butanoic Acid]: the IC50 is 42 nM in assay [1] and 0.8 nM in assay [2].
Regarding `COc1ccc(C(F)(F)F)cc1C(CC(=O)O)Cc1cc(OCCc2ccc3c(n2)NCCC3)n(C)n1` (centres unmarked) [Example 13, 3-(2-methoxy-5-(trifluoromethyl)phenyl)-4-(1-methyl-5-(2-(5,6,7,8-tetrahydro-1,8-naphthyridin-2-yl)ethoxy)-1H-pyrazol-3-yl)butanoic Acid Trifluoroacetate], the IC50 in assay [1] is 26 nM; in assay [2], 16 nM.
For the compound `COc1ccc(Br)cc1C(CC(=O)O)Cc1cc(OCCc2ccc3c(n2)NCCC3)n(C)n1` (centres unmarked) [Example 14, 3-(5-bromo-2-methoxyphenyl)-4-(1-methyl-5-(2-(5,6,7,8-tetrahydro-1,8-naphthyridin-2-yl)ethoxy)-1H-pyrazol-3-yl)butanoic acid trifluoroacetate], the figures for the IC50 in assay [1] and in assay [2] were 12 nM and 7.9 nM, respectively.
Take `COc1ccc([C@H](CC(=O)O)Cc2cc(OCCc3ccc4c(n3)NCCC4)n(C)n2)cc1F` [Example 15, (3S)-3-(3-fluoro-4-methoxyphenyl)-4-(1-methyl-5-(2-(5,6,7,8-tetrahydro-1,8-naphthyridin-2-yl)ethoxy)-1H-pyrazol-3-yl)butanoic Acid]: the IC50 in assay [1] turned out to be 90 nM; in assay [2], 0.3 nM.
The corresponding values for `Cn1nc(CC(CC(=O)O)c2cc(Br)cc(C(C)(C)C)c2)cc1OCCc1ccc2c(n1)NCCC2` (centres unmarked) [Example 16, 3-(3-bromo-5-tert-butyl-phenyl)-4-(1-methyl-5-(2-(5,6,7,8-tetrahydro-1,8-naphthyridin-2-yl)ethoxy)-1H-pyrazol-3-yl)butanoic Acid] are 7.8 nM and 3.1 nM.
As to `Cn1nc(CC(CC(=O)O)c2cc(C#N)cc(C(C)(C)C)c2)cc1OCCc1ccc2c(n1)NCCC2` (centres unmarked) [Example 17], the IC50 in assay [1] was 6.9 nM; in assay [2], 0.4 nM.
In the case of `Cn1nc(CC(CC(=O)O)c2cc(C(C)(C)C)cc(C(C)(C)C)c2)cc1OCCc1ccc2c(n1)NCCC2` (centres unmarked) [Example 18, 3-(3,5-di-tert-butylphenyl)-4-[1-methyl-5-[2-(5,6,7,8-tetrahydro-1,8-naphthyridin-2-yl)ethoxyl]pyrazol-3-yl]butanoic Acid], the values for the IC50 in assay [1] and in assay [2] were 85 nM and 180 nM, respectively.
For the compound `Cn1nc(CC(CC(=O)O)c2cc(Br)cc(C3(C(F)F)CC3)c2)cc1OCCc1ccc2c(n1)NCCC2` (centres unmarked) [Example 19, 3-(3-bromo-5-(1-(difluoromethyl)cyclopropyl)phenyl)-4-(1-methyl-5-(2-(5,6,7,8-tetrahydro-1,8-naphthyridin-2-yl)ethoxy)-1H-pyrazol-3-yl)butanoic Acid], the IC50 in assay [1] was 8.5 nM; in assay [2], 1.2 nM.
As for `Cn1nc(CC(CC(=O)O)c2cc(C#N)cc(C3(C(F)F)CC3)c2)cc1OCCc1ccc2c(n1)NCCC2` (centres unmarked) [Example 20, 3-(3-cyano-5-(1-(difluoromethyl)cyclopropyl)phenyl)-4-(1-methyl-5-(2-(5,6,7,8-tetrahydro-1,8-naphthyridin-2-yl)ethoxy)-1H-pyrazol-3-yl)butanoic Acid], the IC50 is 14 nM in assay [1] and 0.2 nM in assay [2].
Turning to `Cn1nc(CC(CC(=O)O)c2cc(F)cc(C3(C(F)F)CC3)c2)cc1OCCc1ccc2c(n1)NCCC2` (centres unmarked) [Example 21, 3-(3-(1-(difluoromethyl)cyclopropyl)-5-fluorophenyl)-4-(1-methyl-5-(2-(5,6,7,8-tetrahydro-1,8-naphthyridin-2-yl)ethoxy)-1H-pyrazol-3-yl)butanoic Acid], the values for the IC50 in assay [1] and in assay [2] were 53 nM and 0.2 nM, respectively.
`Cn1nc(CC(CC(=O)O)c2cc(Cl)cc(C3(C(F)F)CC3)c2)cc1OCCc1ccc2c(n1)NCCC2` (centres unmarked) [Example 22, 3-(3-chloro-5-(1-(difluoromethyl)cyclopropyl)phenyl)-4-(1-methyl-5-(2-(5,6,7,8-tetrahydro-1,8-naphthyridin-2-yl)ethoxy)-1H-pyrazol-3-yl)butanoic Acid]: the figures for the IC50 in assay [1] and in assay [2] were 17 nM and 0.6 nM, respectively.
Turning to `Cn1nc(CC(CC(=O)O)c2cc(C(F)(F)F)cc(C3(C(F)F)CC3)c2)cc1OCCc1ccc2c(n1)NCCC2` (centres unmarked) [Example 23, 3-(3-(1-(difluoromethyl)cyclopropyl)-5-(trifluoromethyl)phenyl)-4-(1-methyl-5-(2-(5,6,7,8-tetrahydro-1,8-naphthyridin-2-yl)ethoxy)-1H-pyrazol-3-yl)butanoic Acid], the concentration for half-maximal inhibition (IC50) in assay [1] was found to be 7.9 nM; in assay [2], 6.5 nM.
